Measured values taken from the NIST ThermoML archive (doi:10.1021/acs.jced.7b00429).
Numbers after ± are expanded uncertainties.

Columns and labels:
[1] = 100 kPa, Liquid; for viscosity: Falling or rolling sphere viscometry; for speed of sound: Frequency=3 MHz, Single path-length method; for mass density: Vibrating tube method
[2] = xn = mol fraction of the nth substance listed; conditions: 100 kPa, Liquid, x2 = 0; for viscosity: Falling or rolling sphere viscometry; for speed of sound: Frequency=3 MHz, Single path-length method; for mass density: Vibrating tube method

CCn1cc[n+](C)c1.O=S(=O)([O-])C(F)(F)F [1-ethyl-3-methylimidazolium trifluoromethanesulfonate]
[1]
Conditions | mass density [kg/m3] | speed of sound [m/s] | viscosity [mPa·s]
298.15 K | 1379.91 ± 2.5 | 1436 ± 10 | 45.67 ± 14
303.15 K | 1375.71 ± 2.5 | 1425.4 ± 10 | 38.31 ± 12
308.15 K | 1371.51 ± 2.5 | 1414.3 ± 10 | 32.38 ± 9.7
313.15 K | 1367.36 ± 2.5 | 1403 ± 10 | 27.68 ± 8.3
318.15 K | 1363.21 ± 2.5 | 1392.7 ± 10 | 23.86 ± 7.2
323.15 K | 1359.07 ± 2.5 | 1381.7 ± 10 | 20.75 ± 6.2

CC#N [acetonitrile]
[1]
Conditions | mass density [kg/m3] | speed of sound [m/s] | viscosity [mPa·s]
298.15 K | 776.71 ± 2 | 1278.5 ± 10 | 0.34 ± 0.1
303.15 K | 771.29 ± 2 | 1258.4 ± 10 | 0.32 ± 0.1
308.15 K | 765.83 ± 2 | 1238.2 ± 10 | 0.31 ± 0.09
313.15 K | 760.34 ± 2 | 1218 ± 10 | 0.3 ± 0.09
318.15 K | 754.82 ± 2 | 1197.9 ± 10 | 0.29 ± 0.09
323.15 K | 749.25 ± 2 | 1177.8 ± 10 | 0.28 ± 0.08

CC#N [acetonitrile] + CCn1cc[n+](C)c1.O=S(=O)([O-])C(F)(F)F
[2]
Conditions | mass density [kg/m3] | speed of sound [m/s] | viscosity [mPa·s]
298.15 K | 776.71 ± 2 | 1278.5 ± 10 | 0.34 ± 0.1
303.15 K | 771.29 ± 2 | 1258.4 ± 10 | 0.32 ± 0.1
308.15 K | 765.83 ± 2 | 1238.2 ± 10 | 0.31 ± 0.09
313.15 K | 760.34 ± 2 | 1218 ± 10 | 0.3 ± 0.09
318.15 K | 754.82 ± 2 | 1197.9 ± 10 | 0.29 ± 0.09
323.15 K | 749.25 ± 2 | 1177.8 ± 10 | 0.28 ± 0.08
